# US8431563B2 (priority 2010, dated 2013)
# Structures can show the parent of a compound that is named as a salt.
# Key:
# [1] = biological target: T1, GK-GKRP (Homo sapiens, UniProt Q14397); assay: biochemical; details: GK-GKRP IC50 (Binding)
# T1 sequence (Q14397 1-625): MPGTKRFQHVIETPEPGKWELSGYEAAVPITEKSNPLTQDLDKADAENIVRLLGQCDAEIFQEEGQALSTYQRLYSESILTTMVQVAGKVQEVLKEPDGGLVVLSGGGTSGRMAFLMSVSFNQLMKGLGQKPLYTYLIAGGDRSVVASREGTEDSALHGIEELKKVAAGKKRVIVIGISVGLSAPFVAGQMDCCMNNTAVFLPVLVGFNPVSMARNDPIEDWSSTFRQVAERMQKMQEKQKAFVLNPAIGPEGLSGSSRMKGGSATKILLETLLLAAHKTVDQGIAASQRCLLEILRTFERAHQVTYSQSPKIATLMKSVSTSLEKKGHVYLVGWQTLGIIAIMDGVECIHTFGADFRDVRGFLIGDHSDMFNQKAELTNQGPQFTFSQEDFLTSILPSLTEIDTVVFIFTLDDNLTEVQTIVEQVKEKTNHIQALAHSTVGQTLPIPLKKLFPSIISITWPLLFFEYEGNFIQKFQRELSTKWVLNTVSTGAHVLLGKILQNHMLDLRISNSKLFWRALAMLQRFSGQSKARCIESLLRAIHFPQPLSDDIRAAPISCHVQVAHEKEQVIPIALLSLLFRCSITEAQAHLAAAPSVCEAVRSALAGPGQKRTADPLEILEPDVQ
# [2] = biological target: T2, GKRP (Glucokinase Regulatory Protein) with human His-hepatic GK (Homo sapiens, UniProt Q14397); assay: GKRP NADPH Coupled Assay; type: biochemical; details: indirect measure of glucose-6-phosphate, fluorescence, 1 μM GKRP (10×), 20 nM GK (5×)
# T2 sequence (Q14397 1-625): T1 sequence (Q14397 1-625)
# Procedure, shortened: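 Human His-hepatic GK (5× stock 20 nM) in 50 mM Tris pH 7.5, 4 mM MgCl2, 6% DMSO, 0.1% BSA, 0.01% Brij-35, with GKRP and compound preincubated 30 min, then reaction 1 h at RT. Glucose-6-phosphate read indirectly via G6P dehydrogenase-coupled NADPH formation from β-NADP (2× stop/detection reagent, pH 9.2, 5 min).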
# [3] = biological target: T2, GKRP (Glucokinase Regulatory Protein) with human His-hepatic GK; assay: GKRP LC MS/MS Biochemical Assay; details: 13C-glucose-6-phosphate formation, 1 μM GKRP (10×), 30 nM GK (5×)
# Procedure, shortened: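 Human His-hepatic GK (working stock 30 nM, 5×) with GKRP in 50 mM Tris pH 7.5, 4 mM MgCl2, 6% DMSO, DTT, BSA and Brij-35. After a 30 min preincubation, GK was added and the reaction ran 30 min at room temperature. Stopped with acetonitrile; 13C-glucose-6-phosphate formed from 13C-glucose quantified by LC MS/MS.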
IC50 [1] [nM],SMILES,EC50 ([2]; GK-GKRP EC50 (NADPH-coupled)) [nM],EC50 ([3]; GK-GKRP EC50 (LC MS/MS)) [nM],EC50 ([2]; read-out: GK-GKRP EC50 (NADPH-coupled)) [nM],EC50 ([3]; read-out: GK-GKRP EC50 (LC MS/MS)) [nM]
36,"CC#CC1CN(S(=O)(=O)c2ccc(N)nc2)CCN1c1ncc(C(C)(O)C(F)(F)F)cn1 (mixture of isomers) [Example 251, 2-(2-(4-((6-amino-3-pyridinyl)sulfonyl)-2-(1-propyn-1-yl)-1-piperazinyl)-5-pyrimidinyl)-1,1,1-trifluoro-2-propanol]",–,–,–,–
–,"Cc1ccc(S(=O)(=O)N2CCN(c3ccc(C(O)(C(F)(F)F)C(F)(F)F)cc3)CC2)s1 [Example 8, 1,1,1,3,3,3-hexafluoro-2-(4-(4-((5-methyl-2-thiophenyl)sulfonyl)-1-piperazinyl)phenyl)-2-propanol]",4580,11400,–,–
–,"O=S(=O)(c1cccc(Cl)c1)N1CCN(c2ccc(C(O)(C(F)(F)F)C(F)(F)F)cc2)CC1 [Example 9, 2-(4-(4-(3-chlorophenylsulfonyl)piperazin-1-yl)phenyl)-1,1,1,3,3,3-hexafluoro-2-propanol]",4410,3710,–,–
–,"O=S(=O)(c1ccccc1Cl)N1CCN(c2ccc(C(O)(C(F)(F)F)C(F)(F)F)cc2)CC1 [Example 10, 2-(4-(4-((2-chlorophenyl)sulfonyl)-1-piperazinyl)phenyl)-1,1,1,3,3,3-hexafluoro-2-propanol]",3950,2600,–,–
–,"C[C@H]1CN(S(=O)(=O)c2ccccc2)CCN1c1ccc(C(O)(C(F)(F)F)C(F)(F)F)cc1 [Example 12, 1,1,1,3,3,3-hexafluoro-2-(4-((2S)-2-methyl-4-(phenylsulfonyl)-1-piperazinyl)phenyl)-2-propanol]",821,884,–,–
–,"O=S(=O)(c1ccccc1)c1ccc(-c2ccc(C(O)(C(F)(F)F)C(F)(F)F)cn2)cc1 [Example 17, 1,1,1,3,3,3-hexafluoro-2-(6-(4-(phenylsulfonyl)phenyl)-3-pyridinyl)-2-propanol]",1630,1710,–,–
–,"O=S(=O)(c1ccccc1)c1ccc(-c2ccc(C(O)(C(F)(F)F)C(F)(F)F)cc2)cc1 [Example 21, 1,1,1,3,3,3-hexafluoro-2-(4′-(phenylsulfonyl)-4-biphenylyl)-2-propanol]",1660,3960,–,–
–,"O=S(=O)(c1ccccc1)N1CCN(c2ccc(C(O)(C(F)(F)F)C(F)(F)F)cn2)CC1 [Example 22, 1,1,1,3,3,3-hexafluoro-2-(6-(4-(phenylsulfonyl)-1-piperazinyl)-3-pyridinyl)-2-propanol]",2730,2080,–,–
–,"C[C@H]1CN(S(=O)(=O)c2nccs2)CCN1c1ccc(C(O)(C(F)(F)F)C(F)(F)F)cc1 [Example 31, 1,1,1,3,3,3-hexafluoro-2-(4-((2S)-2-methyl-4-(1,3-thiazol-2-ylsulfonyl)-1-piperazinyl)phenyl)-2-propanol trifluoroacetate]",561,702,–,–
–,"O=S(=O)(c1nccs1)N1CCN(c2ccc(C(O)(C(F)(F)F)C(F)(F)F)cc2)CC1 [Example 33, 1,1,1,3,3,3-hexafluoro-2-(4-(4-(1,3-thiazol-2-ylsulfonyl)-1-piperazinyl)phenyl)-2-propanol trifluoroacetate]",664,842,–,–
–,"CC(O)(c1ccc(N2CCN(S(=O)(=O)c3ccccc3)CC2CC2CCOCC2)cc1)C(F)(F)F (stereo not shown) [Example 41, 1,1,1-trifluoro-2-(4-(4-(phenylsulfonyl)-2-(tetrahydro-2H-pyran-4-ylmethyl)-1-piperazinyl)phenyl)-2-propanol]",–,–,785,572
–,"C[C@H]1COCCN1C[C@H]1CN(S(=O)(=O)c2cccs2)CCN1c1ccc([C@@](C)(O)C(F)(F)F)cc1 [Example 45 Peak #2, 1,1,1-trifluoro-2-(4-((2S)-2-(((3S)-3-methyl-4-morpholinyl)methyl)-4-(2-thiophenylsulfonyl)-1-piperazinyl)phenyl)-2-propanol]",68,71,–,–
–,"CC(O)(c1ccc(N2CCN(S(=O)(=O)c3cccs3)CC2CN2C[C@H]3C[C@@H]2CO3)cc1)C(F)(F)F (stereo partly drawn) [Example 50, 1,1,1-trifluoro-2-(4-(2-((1R,4R)-2-oxa-5-azabicyclo[2.2.1]hept-5-ylmethyl)-4-(2-thiophenylsulfonyl)-1-piperazinyl)phenyl)-2-propanol]",670,880,–,–
–,"O=S(=O)(c1c[nH]cn1)N1CCN(c2ccc(C(O)(C(F)(F)F)C(F)(F)F)cc2)CC1 [Example 60, 1,1,1,3,3,3-hexafluoro-2-(4-(4-(1H-imidazol-4-ylsulfonyl)-1-piperazinyl)phenyl)-2-propanol]",2340,2320,–,–
–,"CC[C@H]1CN(S(=O)(=O)c2cccs2)CCN1c1ccc(C(O)(C(F)(F)F)C(F)(F)F)cc1 [Example 63, 2-(4-((2S)-2-ethyl-4-(2-thiophenylsulfonyl)-1-piperazinyl)phenyl)-1,1,1,3,3,3-hexafluoro-2-propanol]",679,1370,–,–
–,"O=S(=O)(c1cccs1)N1CCN(c2ccc(C(O)(C(F)(F)F)C(F)(F)F)cc2)[C@@H](Cc2ccccc2)C1 [Example 64, 2-(4-((2S)-2-benzyl-4-(2-thiophenylsulfonyl)-1-piperazinyl)phenyl)-1,1,1,3,3,3-hexafluoro-2-propanol]",308,772,–,–
–,"O=S(=O)(c1cccs1)N1CCN(c2ccc(C(O)(C(F)(F)F)C(F)(F)F)cc2-c2ccccc2)CC1 [Example 69, 1,1,1,3,3,3-hexafluoro-2-(6-(4-(2-thiophenylsulfonyl)-1-piperazinyl)-3-biphenylyl)-2-propanol trifluoroacetate]",2120,1750,–,–
–,"COc1cccc(-c2cc(C(O)(C(F)(F)F)C(F)(F)F)ccc2N2CCN(S(=O)(=O)c3cccs3)CC2)c1 [Example 70, 1,1,1,3,3,3-hexafluoro-2-(3′-methoxy-6-(4-(2-thiophenylsulfonyl)-1-piperazinyl)-3-biphenylyl)-2-propanol trifluoroacetate]",3340,1820,–,–
–,"O=S(=O)(c1cccs1)N1CCN(c2ccc(C(O)(C(F)(F)F)C(F)(F)F)cc2-c2cccc(F)c2)CC1 [Example 71, 1,1,1,3,3,3-hexafluoro-2-(3′-fluoro-6-(4-(2-thiophenylsulfonyl)-1-piperazinyl)-3-biphenylyl)-2-propanol]",3670,1840,–,–
–,"O=S(=O)(c1cccs1)N1CCN(c2ccc(C(O)(C(F)(F)F)C(F)(F)F)cc2-c2cccnc2)CC1 [Example 72, 1,1,1,3,3,3-hexafluoro-2-(3-(3-pyridinyl)-4-(4-(2-thiophenylsulfonyl)-1-piperazinyl)phenyl)-2-propanol]",775,783,–,–
–,"O=S(=O)(c1cccs1)N1CCN(c2ccc(C(O)(C(F)(F)F)C(F)(F)F)cc2-c2ccsc2)CC1 [Example 73, 1,1,1,3,3,3-hexafluoro-2-(3-(3-thiophenyl)-4-(4-(2-thiophenylsulfonyl)-1-piperazinyl)phenyl)-2-propanol]",3500,1900,–,–
–,"O=S(=O)(c1cccs1)N1CCN(c2ccc(C(O)(C(F)(F)F)C(F)(F)F)cc2-c2ccc(O)cc2)CC1 [Example 74, 2′-(4-(2-thiophenylsulfonyl)-1-piperazinyl)-5′-(2,2,2-trifluoro-1-hydroxy-1-(trifluoromethyl)ethyl)-4-biphenylol]",1470,1370,–,–
